Measured values from patent publication US20230203485A1, “METHODS FOR MODULATING MHC-I EXPRESSION AND IMMUNOTHERAPY USES THEREOF” (Dana-Farber Cancer Institute, Inc., priority 2020, published 2023).

Test system: class I bound peptides
Assay: HLA-I immunoprecipitation and LC-MS/MS immunopeptidome of cell lines +/- IFN-γ
Assay type: cell-based, human
Method: Up to 40 million or 0.2 g of MCC cells were immunoprecipitated. Briefly, MCC cells were harvested and lysed in ice-cold lysis buffer containing […] (pH 8.0), 1 mM EDTA (pH 8.0), 0.1M sodium chloride, Triton X-100, 0.06M octyl β-d-glucopyranoside, 100 U/mL DNAse I, 1 mM phenylmethanesulfonyl fluoride (all from Sigma Aldrich), and protease inhibitor cocktail (Roche Diagnostics). Cell lysate was centrifuged at 12,700 rpm at 4° C. for 22 min. Lysate supernatant was coupled with Gammabind Plus sepharose beads (GE Healthcare) and incubated with 10 μg of HLA-I antibody (Clone W6/32, Santa Cruz Biotechnologies) at 4° C. under rotary agitation for 3 h. After incubation, the lysate-bead-antibody mixture was briefly centrifuged and the supernatant was discarded. Beads were washed with lysis buffer, consisting of wash buffer containing 40 mM Tris (pH 8.0), 1 mM EDTA (pH 8.0), 0.1M sodium chloride, 0.06M octyl β-d-glucopyranoside, and 20 mM Tris buffer, without protease inhibitors. […] Peptides of up to three immunoprecipitations were combined, acid eluted, and analyzed using LC/MS-MS. […] Peptides were eluted in a 6-30% gradient (EasyLC 1000 or 1200, Thermo Fisher Scientific) and analyzed on a QExactive Plus, Fusion Lumos, or Orbitrap Exploris 480 (Thermo Fisher Scientific). […] Fractions were analyzed on a Fusion Lumos or Orbitrap Exploris 480 equipped with a FAIMSpro interface. […]

In the case of “IFN-γ: interferon gamma used to stimulate MCC cell lines”, the “median fold increase in the abundance of class I bound peptides” value (across 7 cell lines, following IFN-γ stimulation) is reported as 12 fold and the “frequencies of peptides mapping to each HLA allele” value (cell lines with vs without IFN-γ treatment) is reported as “increase in HLA-B-presented peptides”.
